According to publication PMC2763079 (Molecular Imaging and Biology, 2009):

Key:
[1] = molecular target: T1, TSPO (Rattus norvegicus, UniProt P16257); test: correlation of specific binding in control rats with [^3H]-PK11195 binding; type: in vivo
[2] = molecular target: T1, TSPO; test: ex vivo biodistribution after PET scan; type: in vivo; conditions: 60 min after tracer injection

T1 sequence (P16257 whole entry): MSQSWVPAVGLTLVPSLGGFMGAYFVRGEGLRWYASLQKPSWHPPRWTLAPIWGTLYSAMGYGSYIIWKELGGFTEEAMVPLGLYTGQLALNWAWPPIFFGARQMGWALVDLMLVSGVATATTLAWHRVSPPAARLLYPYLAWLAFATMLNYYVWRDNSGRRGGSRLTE

- R, correlation of specific binding in control rats with [^3H]-PK11195 binding ([1]; Pearson correlation, [^3H]-PK11195 binding from Kurumaji et al. [25]): 0.96
- slope of the linear regression of specific binding vs [^3H]-PK11195 binding ([1]; control rats): 0.010
- Ex vivo biodistribution SUV, bulbus olfactorius ([2]; HSE rats): 1.59 SUV
- Ex vivo biodistribution SUV, cerebellum ([2]; HSE rats): 0.88 SUV
- Ex vivo biodistribution SUV, medulla ([2]; HSE rats): 1.29 SUV
- Ex vivo biodistribution SUV, pons ([2]; HSE rats): 1.54 SUV
- Ex vivo biodistribution SUV, bulbus olfactorius ([2]; control rats): 1.20 SUV
- Ex vivo biodistribution SUV, cerebellum ([2]; control rats): 0.51 SUV
- Ex vivo biodistribution SUV, medulla ([2]; control rats): 0.61 SUV
- Ex vivo biodistribution SUV, pons ([2]; control rats): 0.59 SUV
SMILES: CC[C@@H](C)N(C)C(=O)c1cc2ccccc2c(-c2ccccc2Cl)n1 [[^11C]-(R)-PK11195, (R)-N-methyl-N-(1-methylpropyl)-1-(2-chlorophenyl)isoquinoline-3-carboxamide]
